# What was measured:
# Experiment in all cases: normalised viability (% of control), CellTiter-Blue; higher = more viable cells (about 100 = DMSO control)
# Settings in all cases: incubation time: 72 h
# CAL-51 [1] = tested on: CAL-51
# Experimental: (§1)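 DSRT, CellTiter-Blue viability, 72 h incubation. Signal is normalised to DMSO and benzethonium chloride controls. Value is the normalised response at dose 6.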
# CAL-148 [2] = tested on: CAL-148
# Experimental: as §1
# CAL-85-1 [3] = tested on: CAL-85-1
# Experimental: as §1
# MDA-MB-453 [4] = tested on: MDA-MB-453
# Experimental: as §1
# DU-4475 [5] = tested on: DU-4475
# Experimental: as §1
# HDQ-P1 [6] = tested on: HDQ-P1
# Experimental: as §1
# MDA-MB-436 = tested on: MDA-MB-436
# Method in brief: (§2)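 Each value is normalised viability at a single listed concentration of the series. Breast cancer cell lines in 384-well plates were incubated 72 h with compound and read by CellTiter-Blue fluorescence at 560/590 nm, with vehicle set to 100 and a positive kill control to 0 on every plate.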
# CAL-51 [7] = tested on: CAL-51; remark: listed apart in the source
# Method in brief: as §2
# MFM-223 = tested on: MFM-223
# Method in brief: as §2
# CAL-85-1 [8] = tested on: CAL-85-1; remark: listed apart in the source
# Method in brief: as §2
# Hs578T = tested on: Hs578T
# Method in brief: as §2
# BT-474 = tested on: BT-474
# Method in brief: as §2
# DU-4475 [9] = tested on: DU-4475; remark: listed apart in the source
# Method in brief: as §2
# BT-549 = tested on: BT-549
# Method in brief: as §2
# SK-BR-3 = tested on: SK-BR-3
# Method in brief: as §2
# HDQ-P1 [10] = tested on: HDQ-P1; remark: listed apart in the source
# Method in brief: as §2
# CAL-51 [11] = tested on: CAL-51; remark: listed apart in the source
# Experimental: (§3)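 DSRT, CellTiter-Blue viability, 72 h incubation. Signal is normalised to DMSO and benzethonium chloride controls. Value is the normalised response at dose 8.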
# CAL-148 [12] = tested on: CAL-148; remark: listed apart in the source
# Experimental: as §3
# CAL-85-1 [13] = tested on: CAL-85-1; remark: listed apart in the source
# Experimental: as §3
# MDA-MB-453 [14] = tested on: MDA-MB-453; remark: listed apart in the source
# Experimental: as §3
# DU-4475 [15] = tested on: DU-4475; remark: listed apart in the source
# Experimental: as §3
# HDQ-P1 [16] = tested on: HDQ-P1; remark: listed apart in the source
# Experimental: as §3
# CAL-51 [17] = tested on: CAL-51; remark: listed apart in the source
# Experimental: (§4)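 DSRT, CellTiter-Blue viability, 72 h incubation. Signal is normalised to DMSO and benzethonium chloride controls. Value is the normalised response at dose 9.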
# CAL-148 [18] = tested on: CAL-148; remark: listed apart in the source
# Experimental: as §4
# CAL-85-1 [19] = tested on: CAL-85-1; remark: listed apart in the source
# Experimental: as §4
# MDA-MB-453 [20] = tested on: MDA-MB-453; remark: listed apart in the source
# Experimental: as §4
# DU-4475 [21] = tested on: DU-4475; remark: listed apart in the source
# Experimental: as §4
# HDQ-P1 [22] = tested on: HDQ-P1; remark: listed apart in the source
# Experimental: as §4
smiles,measurement,setting,value
C=CC(=O)N1CCC[C@@H](n2nc(-c3ccc(Oc4ccccc4)cc3)c3c(N)ncnc32)C1,normalised viability,CAL-51 [1]; 30 nM,92.2%
same,normalised viability,CAL-148 [2]; 30 nM,44.8%
same,normalised viability,CAL-85-1 [3]; 30 nM,96%
same,normalised viability,MDA-MB-453 [4]; 30 nM,50.2%
same,normalised viability,DU-4475 [5]; 30 nM,84.4%
same,normalised viability,HDQ-P1 [6]; 30 nM,107%
same,normalised viability,MDA-MB-436; 10 nM,88.2%
same,normalised viability,CAL-51 [7]; 1 nM,95%
same,normalised viability,MFM-223; 10 nM,91.1%
same,normalised viability,CAL-85-1 [8]; 1 nM,96.2%
same,normalised viability,Hs578T; 10 nM,99.8%
same,normalised viability,BT-474; 10 nM,84.3%
same,normalised viability,DU-4475 [9]; 1 nM,92.8%
same,normalised viability,BT-549; 10 nM,97.9%
same,normalised viability,SK-BR-3; 10 nM,57.9%
same,normalised viability,HDQ-P1 [10]; 1 nM,111%
same,normalised viability,CAL-51 [11]; 300 nM,85.5%
same,normalised viability,CAL-148 [12]; 300 nM,84.6%
same,normalised viability,CAL-85-1 [13]; 300 nM,57.1%
same,normalised viability,MDA-MB-453 [14]; 300 nM,26.9%
same,normalised viability,DU-4475 [15]; 300 nM,96.1%
same,normalised viability,HDQ-P1 [16]; 300 nM,87.5%
same,normalised viability,CAL-51 [17]; 1000 nM,86.5%
same,normalised viability,CAL-148 [18]; 1000 nM,76.3%
same,normalised viability,CAL-85-1 [19]; 1000 nM,49.1%
same,normalised viability,MDA-MB-453 [20]; 1000 nM,26.5%
same,normalised viability,DU-4475 [21]; 1000 nM,97.8%
same,normalised viability,HDQ-P1 [22]; 1000 nM,69.1%
CC(=O)Nc1cccc(-n2c(=O)n(C3CC3)c(=O)c3c(Nc4ccc(I)cc4F)n(C)c(=O)c(C)c32)c1,normalised viability,CAL-51 [1]; 7.5 nM,81.6%
same,normalised viability,CAL-148 [2]; 7.5 nM,90.7%
same,normalised viability,CAL-85-1 [3]; 7.5 nM,76.2%
same,normalised viability,MDA-MB-453 [4]; 7.5 nM,99.6%
same,normalised viability,DU-4475 [5]; 7.5 nM,0.58%
same,normalised viability,HDQ-P1 [6]; 7.5 nM,54.1%
same,normalised viability,MDA-MB-436; 2.5 nM,92.8%
same,normalised viability,CAL-51 [7]; 0.25 nM,90.4%
same,normalised viability,MFM-223; 2.5 nM,90.6%
same,normalised viability,CAL-85-1 [8]; 0.25 nM,97.3%
same,normalised viability,Hs578T; 2.5 nM,94.9%
same,normalised viability,BT-474; 2.5 nM,119%
same,normalised viability,DU-4475 [9]; 0.25 nM,101%
same,normalised viability,BT-549; 2.5 nM,104%
same,normalised viability,SK-BR-3; 2.5 nM,92.7%
same,normalised viability,HDQ-P1 [10]; 0.25 nM,103%
same,normalised viability,CAL-51 [11]; 75 nM,73.3%
same,normalised viability,CAL-148 [12]; 75 nM,85.2%
same,normalised viability,CAL-85-1 [13]; 75 nM,38.8%
same,normalised viability,MDA-MB-453 [14]; 75 nM,72.8%
same,normalised viability,DU-4475 [15]; 75 nM,-1.23%
same,normalised viability,HDQ-P1 [16]; 75 nM,47.9%
same,normalised viability,CAL-51 [17]; 250 nM,60.5%
same,normalised viability,CAL-148 [18]; 250 nM,87.6%
same,normalised viability,CAL-85-1 [19]; 250 nM,31.2%
same,normalised viability,MDA-MB-453 [20]; 250 nM,50.9%
same,normalised viability,DU-4475 [21]; 250 nM,-1.53%
same,normalised viability,HDQ-P1 [22]; 250 nM,63.6%
CCc1cncnc1N1CCN(Cc2nc3ccc(C(F)(F)F)cc3[nH]2)CC1,normalised viability,CAL-51 [1]; 300 nM,88.1%
same,normalised viability,CAL-148 [2]; 300 nM,107%
same,normalised viability,CAL-85-1 [3]; 300 nM,89.8%
same,normalised viability,MDA-MB-453 [4]; 300 nM,101%
same,normalised viability,DU-4475 [5]; 300 nM,105%
same,normalised viability,HDQ-P1 [6]; 300 nM,105%
same,normalised viability,MDA-MB-436; 100 nM,99.8%
same,normalised viability,CAL-51 [7]; 10 nM,87%
same,normalised viability,MFM-223; 100 nM,103%
same,normalised viability,CAL-85-1 [8]; 10 nM,96.3%
same,normalised viability,Hs578T; 100 nM,96.4%
same,normalised viability,BT-474; 100 nM,123%
same,normalised viability,DU-4475 [9]; 10 nM,94.2%
same,normalised viability,BT-549; 100 nM,88.2%
same,normalised viability,SK-BR-3; 100 nM,98.2%
same,normalised viability,HDQ-P1 [10]; 10 nM,116%
same,normalised viability,CAL-51 [11]; 3000 nM,88.9%
same,normalised viability,CAL-148 [12]; 3000 nM,104%
same,normalised viability,CAL-85-1 [13]; 3000 nM,100%
same,normalised viability,MDA-MB-453 [14]; 3000 nM,88.7%
same,normalised viability,DU-4475 [15]; 3000 nM,100%
same,normalised viability,HDQ-P1 [16]; 3000 nM,108%
same,normalised viability,CAL-51 [17]; 10000 nM,64%
same,normalised viability,CAL-148 [18]; 10000 nM,108%
same,normalised viability,CAL-85-1 [19]; 10000 nM,110%
same,normalised viability,MDA-MB-453 [20]; 10000 nM,54.6%
same,normalised viability,DU-4475 [21]; 10000 nM,91.8%
same,normalised viability,HDQ-P1 [22]; 10000 nM,110%

# From the supplement of paper PMC4862054
